The NIST ThermoML archive (doi:10.1016/j.jct.2019.03.027)
“And” between values parts separate entries of the source, which are not always exact repeats. Identical values can stand only once.

Conditions: Liquid, Closed cell (Static) method

O=C=O [carbon dioxide]
Conditions	vapor or sublimation pressure
273.16 K	3485.7 kPa
273.17 K	3485.9 kPa
278.2 K	3977 kPa and 3975 kPa
283.15 K	4500.5 kPa and 4502 kPa
288.15 K	5090.5 kPa and 5087 kPa
293.14 K	5726.5 kPa and 5726.4 kPa
298.15 K	6436.1 kPa and 6430.1 kPa
303.15 K	7214.4 kPa
303.19 K	7212.8 kPa
303.64 K	7290.9 kPa
303.65 K	7297.4 kPa
303.85 K	7329 kPa and 7326.1 kPa
304.04 K	7360.5 kPa and 7358.8 kPa
